Laboratory results reported in patent publication EP1970064A1, “Silicon-derivatives for pet-imaging” (Bayer Schering Pharma Aktiengesellschaft, priority 2007, dated 2008).

Test: Hydrolytic stability: hydrolysis of the 19F fluorosilane to the silanol at physiological pH (7.0)
Type: physicochemical
Conditions: hydrolytic halflife of the 19F compound at pH 7.0, calculated from the kinetics
Protocol: The time dependent degree of hydrolysis of compounds of formula I in which X is a fluorine atom of isotope 19 to compounds of formula I in which X is a hydroxy group was determined at physiological pH (7.0). From the kinetics the hydrolytic halflife (t1/2) measured in hours [h] of compounds of formula I in which X is a fluorine atom of isotope 19 were calculated (Table 1, column 2).
The ratio of the hydrolytic halflifes of compounds of formula I in which X is a fluorine atom of isotope 19 and the radioactive halflife of the 18-F isotope (1.83 hours) is defined as relative stability (Table 1, column 3).
After 6 hours 90% of the 18-F isotope have been decayed.
Compounds of formula I in which X is a fluorine atom of isotope 18 are considered as useful for PET applications if the relative stability of their analogs bearing a fluorine atom of isotope 19 exceed a factor of four and if at least 50% of these compounds remain intact after 6 hours under hydrolytic conditions at pH 7.

SMILES	t1/2
CC(C)[Si](F)(c1cccc(CC(=O)O)c1)C(C)C [Compound 5e - F, [3-(Fluoro-diisopropyl-silanyl)-phenyl]-acetic acid]	20.0 h
CC(C)C[Si](F)(CC(C)C)c1ccc(C(=O)O)cc1 [Compound 5g-F, 4-(Fluoro-diisobutyl-silanyl)-benzoic acid]	3.5 h
CC(C)[Si](F)(c1ccc(CCC(=O)O)cc1)C(C)C [Compound 5c - F, 3-[4-(Fluoro-diisopropyl-silanyl)-phenyl]-propionic acid]	59.0 h
CC(C)C[Si](F)(CC(C)C)c1ccc(CC(=O)O)cc1 [Compound 5h-F, [4-(Fluoro-diisobutyl-silanyl)-phenyl]-acetic acid]	8.7 h
F[Si](c1ccccc1)(c1ccccc1)c1ccc(CCOC2CCCCO2)cc1 (racemic) [Compound 3f-F, (RS)-Fluoro-diphenyl-{4-[2-(tetrahydro-pyran-2-yloxy)-ethyl]-phenyl}-silane]	0.07 h
CC(C)C[Si](F)(CC(C)C)c1ccc(COC2CCCCO2)cc1 (racemic) [Compound 3g-F, (RS)-Fluoro-diisobutyl-[4-(tetrahydro-pyran-2-yloxymethyl)-phenyl]-silane]	8.1 h
CC(C)[Si](F)(c1cccc(CCOC2CCCCO2)c1)C(C)C (racemic) [Compound 3e - F, (RS)-Fluoro-diisopropyl-{3-[2-(tetrahydro-pyran-2-yloxy)-ethyl]-phenyl}-silane]	> 100.0 h
CC(C)[Si](F)(c1cccc(CCCOC2CCCCO2)c1)C(C)C (racemic) [Compound 3d - F, (RS)-Fluoro-diisopropyl-{3-[3-(tetrahydro-pyran-2-yloxy)-propyl]-phenyl}-silane]	> 100.0 h
CC(C)[Si](F)(c1ccc(CCCO)cc1)C(C)C [Compound 4c - F, 3-[4-(Fluoro-diisopropyl-silanyl)-phenyl]-propan-1-ol]	> 100.0 h
